Values joined by “and” are separate entries in the source; they are usually repeats but may differ in a detail not shown here. Equal entries are not always repeated.
What was measured:
[1] = system: hepatocellular carcinoma HepG2; assay: CellTitre Glo in vitro cytotoxicity, HepG2; type: cell-based; conditions: read-out: IC50, HepG2
Experimental: This example describes the synthesis of exemplary prodrugs based on sulfamoyladenosine (AMS) (structure 1c) (FIG. 2C) for cleavage by the bacterial hydrolase enzyme CPG2. AMS is a close analog of nucleocidin and a potent cytotoxic molecule (HepG2 IC50=9 nM). […] Based on these SAR data, AMS prodrug 1a (“P-AMS”; FIG. 2C) was synthesized from 2′,3′-O-isopropylidene-5′-O-TBS-adenosine (structure 3, FIG. 2D) by 6-N-acylation with CDI-activated bis-O-t-Bu-glutamate (30%), desilylation (TBAF), sulfamoylation (H2NSO2C1, DMA), and acetonide hydrolysis (TFA, H2O, 15% over 3 steps). Two alternative N-sulfamate-linked prodrugs (not shown) attached via CO-PAB-CO and TML-CO linkers were synthesized (FIG. 2B). A more detailed discussion of the P-AMS synthesis and the synthesis of the N-sulfamate-linked prodrug attached via a TML-CO linker (“Trimethyllock-AMS”) is provided below in this example. As an alternative cytotoxic using a known anticancer therapeutic, the mustard prodrug ZD2767P (structure 2a, FIG. 2C) was also synthesized as previously reported (Springer et al., J Med Chem. 37(15):2361-70(1994) and Niculescu-Duvaz et al., Tetrahedron Lett. 46(40):6919-22 (2005)).
(§1) In vitro cytotoxicity of AMS-related structures was also assessed to determine the modifications of AMS that alter cytotoxicity. The in vitro cytotoxicity of each of these AMS-related structures was tested against both hepatocellular carcinoma HepG2 and normal human fibroblast MRC5 cell lines using a CellTitre Glo® assay (Promega, Madison, WI) The modifications and results are provided in Table 1 below.

[2] = system: normal human fibroblast MRC5; assay: CellTitre Glo in vitro cytotoxicity, MRC5; type: cell-based
Experimental: as §1

Jurkat T cells = assay: Jurkat viability with prodrug plus supernatant from CPG2-secreting HEK293T cells; type: cell-based, human
Experimental: The in vitro cytotoxicity of AMS (structure 1c) and its prodrug variant (structure 1a) was tested against a variety of cell lines using a CellTitre Glo® assay (Promega, Madison, WI). […] Moreover, co-treatment with the prodrug and supernatant from CPG2-transfected HEK293T cells (see Example 3) led to cytotoxicity approaching that of the free drug (50 nM), consistent with CPG2-mediated cleavage of the prodrug to release the active parent drug. […] In contrast, AMS prodrug 1a was not activated by HEK293T cells expressing CPG intracellularly, which likely attributed to poor cell-penetrance of the prodrug due to the free bis-anionic gluatamate moiety.
Jurkat T cells were exposed to increasing concentrations of AMS (circle) or Pro-AMS with media alone (triangle) or supernatant from CPG2-secreting HEK293T cells (square). Cell viability was measured at 48 hours by CellTitre-Glo® luminescence assay.
Jurkat T cells were exposed to increasing concentrations of ZD2767P with media alone (triangle) or supernatant from CPG2-secreting HEK293T cells (square). Cell viability was measured at 48 hours by CellTitre-Glo® luminescence assay.

[3] = Cell permeability in CACO-2 cells; type: in vitro ADME, human; conditions: human
[4] = Caco-2, with Ver (so in the source), concentration not stated, + Ver

Compound | IC50 [1] | IC50 [2] | also measured
Nc1ccn([C@@H]2O[C@H](COS(N)(=O)=O)[C@@H](O)[C@H]2O)c(=O)n1 [CMS] | > 500 µM | > 500 µM | 
Nc1nc(-c2ccccc2)nc2c1ncn2[C@@H]1O[C@H](COS(N)(=O)=O)[C@@H](O)[C@H]1O [2-phenyl-AMS] | ~500 µM | > 500 µM | 
Nc1ncnc2c1nc(Cl)n2[C@@H]1O[C@H](COS(N)(=O)=O)[C@@H](O)[C@H]1O [8-Cl-AMS] |  | 3.2 µM and 3.51 µM | 
CCCc1nc2c(N)ncnc2n1[C@@H]1O[C@H](COS(N)(=O)=O)[C@@H](O)[C@H]1O [8-propyl-AMS] | > 500 µM | > 500 µM | 
NS(=O)(=O)OC[C@H]1O[C@@H](n2cnc3c(O)ncnc32)[C@H](O)[C@@H]1O [IMS] | > 500 µM | > 500 µM | 
Nc1ncnc2c1ncn2[C@H]1C[C@H](O)[C@@H](COS(N)(=O)=O)O1 [2′-deoxy-AMS] | < 1 µM and 0.55 µM |  | 
Nc1ncnc2c1ncn2[C@@H]1O[C@H](CNS(N)(=O)=O)[C@@H](O)[C@H]1O [AMSN] | 0.36 µM | 0.39 µM | 
CN(C)c1ncnc2c1ncn2[C@@H]1O[C@H](COS(N)(=O)=O)[C@@H](O)[C@H]1O [6-NMe2-AMS] | > 500 µM | > 500 µM | 
COc1ncnc2c1ncn2[C@@H]1O[C@H](COS(N)(=O)=O)[C@@H](O)[C@H]1O [6-OMe-AMS] | 141 µM | 129 µM | 
NS(=O)(=O)OC[C@H]1O[C@@H](n2cnc3c(NC4CC4)ncnc32)[C@H](O)[C@@H]1O [6-NCyp-AMS] | 10.9 µM | 7.2 µM | 
O=C(O)CC[C@H](NC(=O)Oc1ccc(N(CCI)CCI)cc1)C(=O)O [ZD2767P] |  |  | cell viability with prodrug and CPG2 supernatant (Jurkat T cells; increasing prodrug, 48 hours, supernatant from CPG2-secreting HEK293T cells): significant decrease in cell viability; IC50 (Jurkat T cells; with CPG2 supernatant): 1.7 µM
NS(=O)(=O)OC[C@H]1O[C@@H](n2ccc(=O)[nH]c2=O)[C@H](O)[C@@H]1O [UMS] | > 500 µM | > 500 µM | 
Nc1nc(Nc2ccccc2)nc2c1ncn2[C@@H]1O[C@H](COS(N)(=O)=O)[C@@H](O)[C@H]1O [2-NHPh-AMS] | > 500 µM | 124 µM | 
Nc1nc(N)c2ncn([C@@H]3O[C@H](COS(N)(=O)=O)[C@@H](O)[C@H]3O)c2n1 [2-NH2-AMS] | < 1 µM and 1.75 µM | < 1 µM and 1.17 µM | 
Nc1nc2c(ncn2[C@@H]2O[C@H](COS(N)(=O)=O)[C@@H](O)[C@H]2O)c(=O)[nH]1 [GMS] | > 500 µM | > 500 µM | 
CNc1ncnc2c1ncn2[C@@H]1O[C@H](COS(N)(=O)=O)[C@@H](O)[C@H]1O [6-NHMe-AMS] | 1.8 µM | 0.9 µM | 
CN(C)C(=O)C(CCN1CCC(O)(c2ccc(Cl)cc2)CC1)(c1ccccc1)c1ccccc1 [Loperamide] |  |  | Papp A→B [3, 4]: 10.5 ± 1.5 ×10⁻⁶ cm/s; Papp B→A [3, 4]: 7.8 ± 0.5 ×10⁻⁶ cm/s; Papp A→B ([3]; Caco-2): 2.2 ± 0.3 ×10⁻⁶ cm/s; Papp B→A ([3]; Caco-2): 16.9 ± 1.1 ×10⁻⁶ cm/s
Cc1cn([C@H]2C[C@H](O)[C@@H](COS(N)(=O)=O)O2)c(=O)[nH]c1=O [TMS] | > 500 µM | > 500 µM | 
